Experimental data taken from patent publication US9084779B2, “Conjugates of nitroimidazoles and their use as chemotherapeutic agents” (The Johns Hopkins University, priority 2011, dated 2015).
pIC50: −log10 of the molar value.

Columns and labels:
[1] = system: HT29 human colorectal carcinoma cells; experiment: MTT cell viability assay, 3 days; format: cell-based; settings: Homo sapiens, HT-29, 72 h, normoxic conditions, 1% DMSO
Method: (§1) Additional cell culture, drug treatment and cell viability assays. HT29 human colorectal carcinoma cells, 786-0 human renal adenocarcinoma cells and Hep3B human hepatocellular carcinoma cells were obtained from ATCC and maintained in culture according to their recommendations. […] After the treatment period viability of the cells was determined with the MTT cell viability assay and dose response curves were generated using the calculated values of the percentage viable cells relative to the vehicle control.

[2] = system: Hep3B human hepatocellular carcinoma cells; experiment: MTT cell viability assay, 3 days; format: cell-based; settings: Homo sapiens, Hep3B, 72 h, normoxic conditions, 1% DMSO
Method: as §1

[3] = system: 786-0 human renal adenocarcinoma cells; experiment: MTT cell viability assay, 3 days; format: cell-based; settings: Homo sapiens, 786-0, 72 h, normoxic conditions, 1% DMSO
Method: as §1

[4] = system: subcutaneous LNCaP prostate cancer cell explants; experiment: Immunofluorescence analysis of 2-nitroimidazole induced protein adducts in mouse tumor explants; format: in vivo, nude mice; settings: daily intravenous tail vein injection for three weeks
Method: Immunofluorescence analysis of 2-nitroimidazole induced protein adducts in mouse tumor explants. Nude mice with subcutaneous LNCaP prostate cancer cell explants were administered Hydroxyprobe-1, M3N or M3N-PEG-2NI for three weeks by daily intravenous tail vein injection with an additional injection 3 hours prior to euthanization. Tumors were removed from the euthanized mice by dissection and incubated in 30% sucrose/PBS overnight at 4° C. Excess sucrose was removed and the tissue was incubated in 30% sucrose/PBS:OCT (1:1) for 1 hour at room temperature. Afterward the tissue was frozen in 100% OCT. Frozen sections of […] were prepared and fixed in 4% PFA/PBS for 1 hour at room temperature. The sections were blocked overnight at 4° C. with 5% goat serum/PBS or at room temperature for 1 hour and then incubated with Hydroxyprobe-1 rabbit antiserum (1:200) overnight at 4° C. After three washes with PBS, the secondary antibody, mouse anti rabbit-FITC (1:1000) was added for 1 hour at room temperature. The sections were mounted using Vectashield and fluorescently imaged.

[5] = system: HT29 human colorectal carcinoma cells; experiment: Cell viability by plating efficiency (colony formation after replating); format: cell-based; settings: 40 μM, 48 h, diluted 10,000 fold and replated, colonies stained eight days later
Method: FIG. 6 depicts the plating efficiency of HT29 human colorectal carcinoma cells after treatment with DMSO, 40μ M3n and 40μ M3N-PEG-2NI. HT29 cells were treated for 48 h with 40 μM M3N, 40 μM M3N-PEG-2NI or the DMSO vehicle. At the end of the treatment period, the cells were diluted 10,000 fold and replated. Eight days later colonies were stained with methylene blue.
For the further assessment of cell viability by plating efficiency, cells (2×10^6 cells/100 mm dish) from the human colorectal carcinoma cell line HT29 were treated for 48 hours with 40 μM M3N, 40 μM M3N-PEG-2NI or the DMSO vehicle. At the end of the treatment period, the cells from each dish were released by trypsinization, diluted 10,000 fold and replated into new 100 mm dishes. Eight days later colonies were stained with 0.25% methylene blue in 50% ethanol

[6] = system: orthotopic HT29 tumor implants; experiment: Orthotopic xenograft of HT29 human colorectal carcinoma in nude mice, systemic treatment; format: in vivo, nude (Nu/Nu) mice
Method: Orthotopic Xenograft implantation of HT29 human colorectal carcinoma cells into nude mice. HT29 cells were grown in culture in McCoy's medium until sub-confluent. A single cell suspension of HT29 was then prepared in HBSS and 1×10^7 cells were injected subcutaneously into the flanks of four male T-cell deficient nude (Nu/Nu) mice. Subcutaneous tumors were allowed to grow for 14 days before harvesting and preparation for orthotopic implantation. The mice were euthanized and the subcutaneous tumors were removed using sterile technique. The tumors were divided into 3×3 mm pieces that were kept in phosphate buffered saline (PBS) on ice. T-cell deficient nude (NU/NU) mice (6 male, 5 female) were anesthetized by injecting 0.5 to 1.0 mL of Avertin (20 mM) intraperitoneally in PBS. The abdomen was prepped with 70% ethanol three times and a small nick was made in the skin. The abdominal wall musculature was grasped, lifted, and entered with a single blade of scissors. The single blade of the scissors was used to push the contents of the abdominal cavity away and the incision was extended 2-3 cm. The cecum was identified by its blind ending pouch and exteriorized. The cecum was isolated from the rest of the mouse using pre-cut, sterile gauze and kept moist with warm PBS. A figure of 8 stitches was placed onto the cecum using a 7-0 sized suture and the cecal wall was slightly damaged at the site where the HT29 tumor piece is to be implanted using forceps. An HT29 tumor piece was positioned on the cecum under the stitch and the stitch was then tied. The cecum was returned to the abdominal cavity. Using staples, the mouse abdominal wall musculature and skin was closed and the mouse was allowed to recover from anesthesia.
Systemic treatment with M3N-PEG-2NI (compound 7d). A 40 mM stock solution of M3N-PEG-2NI was prepared by dissolving 0.14 g of M3N-PEG-2NI (MW=616.3 g/mol) in 5.7 mL of CPE. Each day of treatment, 4 T-cell deficient nude mice (2 male, 2 female) bearing orthotopic HT29 tumor implants received 0.1 ml of 20 mM M3N-PEG-2NI via I.V. or I.P. injections. The remaining 4 T-cell deficient nude mice (2 male, 2 female) received 0.1 mL of CPE (FIG. 7) Body weight of mice was monitored every week, until significant body weight change occurred. Then, body weight was measured every other day until day 24. All 8 mice were euthanized on day 24. The mice were dissected and their major organs collected. Special attention was taken in examination of livers since liver metastasis is common in orthotopic colon cancer models.

[7] = 0.1 ml of 20 mM I.V. or I.P., three weeks, euthanized day 24, listed as M3N-PEG-2NI

SMILES: COc1ccc(C[C@H](C)[C@H](C)Cc2ccc(OC)c(OCCOCCOCCOCCn3ccnc3[N+](=O)[O-])c2)cc1OC (racemic) [Compound 7d, (±)-(2R,3S)-4-(3,4-Dimethoxyphenyl)-1-[4-methoxy-3-[12-(2-nitro-1H-imidazol-1-yl)-1,4,7,10-tetraoxadodecanyl]phenyl]-2,3-dimethylbutane]
- pIC50 [1]: 5.22 to 5.40
- pIC50 [2]: 5.40
- pIC50 [3]: 4.85 to 5.00
- Protein adducts in tumor sections by immunofluorescence [4]: Protein-adducts were also found
- Ability of HT29 cells to replicate after treatment (plating efficiency) [5]: unable to replicate
- Mean Primary Tumor and Mass ([6]; 0.1 ml of 20 mM I.V. or I.P., three weeks, euthanized day 24, listed as M3N-PEG-2N): 300 ± 140 mg
- Mean Abdominal Cavity Tumor Mass [6, 7]: 75 ± 50 mg
- Mean Primary Tumor and Mass [6, 7]: 300 ± 140 mg
- Body Weight Increase ([6]; 0.1 ml of 20 mM I.V. or I.P., to day 24): 11.3%
- Mean Total Tumor Load ([6]; primary tumor plus total tumor mass, 0.1 ml of 20 mM I.V. or I.P., day 24, listed as M3N-PEG-2NI): 375 ± 150 mg
- Mice that developed liver metastasis ([6]; treated group of 4 mice, day 24): 1 of the 4
- Peritoneal tumors ([6]; treated group, mice 5 (female) and 7 (male)): no peritoneal tumors
- Peritoneal tumors ([6]; treated group, mice 6 (female) and 8 (male)): a single, small peritoneal tumor
- Tumor masses surrounding the kidneys and ovaries, weight each ([6]; treated group, mouse 5): < 100 mg
- Tumor surrounding the ovaries, weight ([6]; treated group, mouse 6): < 100 mg
